Experimental data as given in patent US20040097433A1, “Chroman derivatives for the reduction of inflammation symptoms” (priority 2002, published 2004).

How the values were obtained:
CD-1 mice = assay: Arachidonic acid ear inflammation model; format: in vivo, mouse; conditions: topical to left ear, 20 μL in 70% ethanol/30% propylene glycol; ear punch weight difference one hour after treatment
Protocol: This assay measures the ability of test compounds to prevent or reduce inflammation secondary to oxazolone or arachidonic acid.
A. Arachidonic acid. Albino male CD-1 mice, 7-9 weeks old were used in this test. A 20% (w/v) arachidonic acid solution in acetone was prepared. Twenty microliters of the arachidonic acid solution was applied to the dorsal left ear of the mouse. Immediately thereafter, test compounds (20 μL in 70% ethanol/30% propylene glycol) were applied to the left ear. The untreated right ears served as control. Mice are sacrificed by CO2 inhalation, one hour after treatment. The left and right ears were removed and 7 mm punch biopsies taken from each. The punch biopsies were weighed, and the differences calculated.

ELAM (E-selectin) = assay: Cell-ELAM (E-selectin) assay; format: cell-based; conditions: Endothelial cell, 6 h, endothelial cells stimulated with LPS and IL-1β for 6 hours; E-selectin antibody ELISA; read-out: EC50 for reducing the expression of ELAM
Excerpt: Another useful cell screening assay, exemplified herein in Example 1B, is the E-selectin (ELAM) production assay, which measures activity of test compounds in reducing expression of ELAM in activated endothelial cells. Briefly, endothelial cells are activated by adding known activators such as lipopolysaccharide, TNF-α, or IL-1β, alone or in some combination. Activated cells produce ELAM, which can be measured using, for example, an E-selectin monoclonal antibody-based ELISA assay. In studies carried out in support of the present invention, ELAM production was decreased. As described herein, chroman derivatives were able to reduce ELAM production in an assay such as the one described in Example 1B.
B. Cell-ELAM Assay. Endothelial-Leukocyte Adhesion Molecule (ELAM), also known as E-selectin, is expressed on the surface of endothelial cells. In this assay, lipopolysaccharide (LPS) and IL-1β are used to stimulate the expression of ELAM; test agents are tested for their abilities to reduce this expression, in accordance with studies showing that reduction of leukocyte adhesion to endothelial cell surface is associated with decreased cellular damage (e.g., Takada, M., Et al., Transplantation 64: 1520-25, 1997; Steinberg, J. B., et al., J. Heart Lung Trans. 13:306-313, 1994).
Endothelial cells may be selected from any of a number of sources and cultured according to methods known in the art; including, for example, coronary artery endothelial cells, human brain microvascular endothelial cells (HBMEC; Hess, D. C., et al., Neurosci. Lett. 213(1): 37-40,1996), or lung endothelial cells. Cells are conveniently cultured in 96-well plates. […] Wells are allowed to develop for 35 minutes, before measurement at 402 nm in a Fluoroskan® Reader with shake program for 10 seconds. Positive results are recorded as a decrease in ELAM concentration in tested wells, as compared to control wells.

CRP = assay: Human Hep3B cells CRP assay; format: cell-based; conditions: for reduction of CRP levels (in words): CRP assay of Example 1A; for EC50: Homo sapiens, 72 h, Hep3B cells stimulated with IL-1β, IL-6 and dexamethasone, three days, CRP ELISA on supernatant, normalized to cell count, read-out: EC50 for reducing CRP levels
Protocol: In studies carried out in support of the present invention, a combination of Interleukin-1β, IL-6, and dexamethasone is used to induce CRP production, and counter-agents are tested for their ability to reduce this production in cultured liver cells, as detailed in Example 1A. The assay is performed on cells grown in 96-well format allowing high throughput screening of compounds. As described herein, chroman derivatives were able to reduce CRP levels in an assay such as the one described in Example 1A.
A. Human Hep3B Cells—CRP assay. Hep3B Cell Line is obtained from the American Type Culture Collection (ATCC Catalog No. HB-8064). The Hep3B cell line was derived from liver tissue of […]. The cells are epithelial in morphology and produce tumors in nude mice. The cells produce α-fetoprotein, hepatitis B surface antigen, albumin, α-2-macroglobulin, α-1-antitrypsin, transferrin, plasminogen, complement C3 and β-lipoprotein (Knowles B B, et al., Science, 1980, 209:497499). This cell line has been widely used to study hepatocyte cytokine and acute phase protein release (e.g., Damtew B, et al., 1993, J. Immunol. 150:4001-4007).
HEP3B cells are grown in Minimum Essential Medium (MEM; GIBCO) supplemented with 10% Fetal Bovine Serum (FBS; Hyclone), 1× Penicillin/Streptomycin (GIBCO, Cat#. 15140-122) and 0.1 mM non-essential amino acids (GIBCO, Catalog No. 11140-050). Cells are thawed and transferred to warm medium according to standard methods known in the art.
Cells are incubated in flasks at 37° C. with 5% CO2 in an air atmosphere incubator. HEP3B growth media is changed every 2 days until the cells reach 70-80% confluence (approx. 3-4 days). For assay, the cells are transferred to 96-well plates, seeded at 5000 cells per well in culture media, and left to grow for 7 days in a 37° C. incubator (air supplemented with 5% CO2). Media is replaced daily until assay. […]
100 μl HRP-conjugated rabbit anti-human CRP (DAKO) diluted 1:500 (in CRP wash buffer) is added to each well, followed by incubation for 30 minutes at 37° C. […] Finally, 50 μl of 1M H2SO4 is added to each well and absorbance at 450 nm is immediately measured in a microtiter spectrophotometer.
CRP measured as above is normalized to cell count per well, using a cell viability assay, such as the Cell Tracker Green assay. […] Plates are immediately read using a Fluoroskan® flourometer with a 485 excitation/538 emission filter pair.

Row | Compound | EC50 (ELAM (E-selectin)) [µM] | protection in arachidonic acid ear inflammation assay (CD-1 mice) | reduction of CRP levels (in words) (CRP) | EC50 (CRP) [µM]
1 | Cc1c(O)cc2c(c1C)OC(C)(CCC(=O)O)CC2 (stereo not drawn) [3-(6-hydroxy-2,7,8-trimethyl-chroman-2-yl)-propionic acid] | – | – | effective at reducing CRP levels | 40 to 60
2 | COC(=O)CCC1(C)CCc2cc(O)c(C)c(C)c2O1 (stereo not drawn) [3-(6-hydroxy-2,7,8-trimethyl-chroman-2-yl)propionic acid methyl ester] | – | – | effective at reducing CRP levels | 10 to 30

Continued, in another order:

Row | EC50 (ELAM (E-selectin)) [µM] | Compound | protection in arachidonic acid ear inflammation assay (CD-1 mice) | reduction of CRP levels (in words) (CRP) | EC50 (CRP) [µM]
3 | 10 to 100 | COC(=O)CCC1(C)CCc2c(Br)c(O)c(C)c(C)c2O1 (stereo not drawn) [3-(5-Bromo-6-hydroxy-2,7,8-trimethyl-chroman-2-yl)-propionic acid methyl ester] | about 40% | – | –
4 | 10 to 100 | CC1(CCC(=O)O)CCc2ccc(O)c(O)c2O1 (stereo not drawn) [3-(7,8-Dihydroxy-2-methyl-chroman-2-yl)-propionic acid] | about 40% | – | –
5 | 10 to 100 | Cc1c(C)c2c(c(C)c1O)CCC(C)(C(=O)NCC1C3CC4CC(C3)CC1C4)O2 (stereo not drawn) [6-Hydroxy-2,5,7,8-tetramethyl-chroman-2-carboxylic acid (adamantan-2-ylmethyl)-amide] | – | – | –
